In PubChem BioAssay (NCI) one finds TGI data, which are given here for 29 molecules.

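Results reflect a 48-hour exposure of cells in 96-well plates to compound at five concentrations. TGI: total growth inhibition.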

Common to all, as to assay: NCI tumour cell line growth inhibition, 48 h
Test [1] concerns MDA-N.
Test [2] relates to SN12C renal.
Test [3] deals with SK-MEL-2 melanoma.
The subject of test [4] is DU-145 prostate.
For test [5], the system named is OVCAR-5 ovarian.
Test [6] relates to BT-549 breast.
The subject of test [7] is NCI/ADR-RES ovarian.
Test [8] has as its system OVCAR-4 ovarian.
Test [9] concerns M14 melanoma.
Test [10] has as its system SF-295 CNS.

In the case of `Cc1oc2c(c1C)S(=O)(=O)C(C#N)=C(N(C)C)N2`, the TGI in test [1], in [2], in test [3], in [4], in [5] and in test [6] was greater than 100 µM throughout. Besides, the TGI in test [7], in test [8], in test [9] and in test [10] was greater than 100 µM throughout.
For the molecule `O=C1C(Cl)=C(N(C(=O)c2ccccc2)C(=O)c2ccccc2)C(=O)c2ccccc21`, the TGI in test [1] is 25.8 µM; in test [2] it was 61.3 µM; in [3], 43.9 µM; in test [4] it was greater than 100 µM; in test [5], 34.3 µM; in test [6] it was 21.7 µM. Also, the TGI in test [7], in test [9] and in test [10] was greater than 100 µM throughout.
`Nc1[nH]nc2nc3ccccc3nc12`: the TGI in [1], in test [2], in test [3], in test [4], in test [5] and in test [6] was greater than 100 µM in each case. The TGI in test [7], in test [8] and in test [10] was greater than 100 µM throughout.
On to `Clc1cccc(NN=Nc2ccc(-c3nc4ccccc4s3)cc2)c1`, for which the TGI in test [1] is 80.1 µM; in test [2], 62.2 µM; in test [3], 48.1 µM; in test [4] it was greater than 100 µM; in [5], greater than 100 µM; in test [6] it was greater than 100 µM. For the same molecule, the TGI in test [7] was 74.1 µM; in test [8], greater than 100 µM; in test [9], greater than 100 µM; in [10] it was greater than 100 µM.
For `O=c1oc2ccccc2cc1-c1cn2c(n1)sc1ccccc12`, the TGI in test [1], in test [2], in [3], in [4], in test [6] and in test [7] was greater than 100 µM throughout. Also, the TGI in test [9] and in [10] was greater than 100 µM throughout.
As for `Cn1c(CO)ccc1-c1ccc(-c2ccc[se]2)[se]1`, the TGI is greater than 61.5 µM in test [1]; 99.5 µM in test [2]; greater than 100 µM in test [3]; 58 µM in test [4]; greater than 81.4 µM in test [6]; greater than 100 µM in test [7]. Further, the values for the TGI in [8], in test [9] and in [10] were 39.5 µM, greater than 100 µM and greater than 100 µM, respectively.
Consider `CCOC(=O)NC(OC)(C(F)(F)F)C(F)(F)F`, for which the TGI in test [1], in test [4], in [6], in test [7], in [8] and in [9] was greater than 100 µM each time. The TGI in test [10] is greater than 100 µM.
In the case of `COc1ccc(C2C(C#N)=C(S)N(C3OC(COC(C)=O)C(OC(C)=O)C(OC(C)=O)C3OC(C)=O)C(c3ccccc3)=C2C(C)=O)cc1` (centres undefined), the TGI in [1], in test [2], in test [3], in test [4], in [5] and in [6] was greater than 100 µM each time. The TGI in [7], in [8], in test [9] and in test [10] was greater than 100 µM in each case.
For the molecule `Cc1cc(S(=O)(=O)Nc2nnc3cnc4ccccc4n23)c(S)cc1Cl`, the TGI in [1], in test [2], in [3], in [4], in test [5] and in [6] was greater than 100 µM each time. Moreover, the TGI in test [7], in test [8], in test [9] and in test [10] was greater than 100 µM in each case.
As for `O=C(O)c1cnc(-n2[nH]c3c(c2=O)CCCC3)[nH]c1=O`, the TGI in test [1], in test [2], in test [3], in test [4], in test [5] and in test [6] was greater than 100 µM each time. Further, the TGI in [7], in test [8], in test [9] and in test [10] was greater than 100 µM each time.
As to `N=c1c2c(=S)n(-c3ccccc3)c(=S)n(-c3ccccc3)c2nc(SCCN2CCCC2)n1-c1ccccc1`, the TGI came to 4.36 µM in test [1]; 3.46 µM in [2]; 13.9 µM in [3]; 3.29 µM in [4]; 32.1 µM in test [5]; 5.13 µM in test [6]. The TGI in test [7] stood at 42.1 µM; in test [8], 7.58 µM; in test [9] it was 3.44 µM; in test [10], 32.9 µM.
In the case of `CC(C)(C)c1cc(OCc2nn3c(Cc4ccccc4)nnc3s2)c(Cl)cc1OCc1nn2c(Cc3ccccc3)nnc2s1`, the TGI in [1], in [2], in [3], in [4], in [5] and in test [6] was greater than 100 µM each time. For the same molecule, the TGI in test [7], in [8], in test [9] and in test [10] was greater than 100 µM in each case.
In the case of `C[C@@H]1C(=O)C[C@H]2C(C)(C)CCC[C@]2(C)[C@@]1(O)CCc1ccoc1`, the TGI in [1], in test [2], in test [3], in [4], in test [5] and in [6] was greater than 100 µM each time. For the same molecule, the TGI in [8], in test [9] and in test [10] was greater than 100 µM each time.
Regarding `C=C1CC(Cn2ccc(=O)[nH]c2=O)(c2ccc(Cl)cc2)OC1=O` (centres undefined), the TGI in test [1] is 17.1 µM; in test [2], 28.1 µM; in test [3], 22.5 µM; in test [4], 23.2 µM; in test [5] it was 30.5 µM; in test [6] it was 18 µM. In addition, the TGI in test [7] stood at 19 µM; in [8] it was 3.61 µM; in test [9], 12.9 µM; in test [10], 38.6 µM.
For `C=C(C)COC1CCCCO1` (centres undefined), the TGI in test [1], in test [2], in test [3], in [4], in test [5] and in test [6] was greater than 100 µM each time. The TGI in test [7], in test [9] and in [10] was greater than 100 µM throughout.
As to `COC(=O)c1c(C#N)c(N)nc2c1CCC2`, the TGI in test [1], in [2], in [3], in test [4], in test [5] and in test [6] was greater than 100 µM throughout. Also, the TGI in test [7], in test [8], in test [9] and in test [10] was greater than 100 µM each time.
Consider `C=CCN(CCNS(=O)(=O)c1ccc(C)cc1)S(=O)(=O)c1ccc(C)cc1`, for which the TGI in test [1] is greater than 100 µM; in [2], greater than 100 µM; in [3], 94.3 µM; in test [4] it was greater than 100 µM; in test [5], greater than 100 µM; in [6] it was 61 µM. The TGI in test [7], in test [8], in test [9] and in test [10] was greater than 100 µM throughout.
Take `C/C=C1\CN(C(=O)OC(C)(C)C)C1C(=O)OC(C)(C)C` (centres undefined): the TGI in test [1], in test [2], in [3], in test [5], in test [6] and in test [7] was greater than 100 µM each time. For the same molecule, the TGI in test [8], in test [9] and in test [10] was greater than 100 µM each time.
With `CC1CC/C(=C\c2ccc(F)cc2)C(=O)/C1=C/c1ccc(F)cc1` (centres undefined), the TGI in test [1] stood at 13.5 µM; in test [2] it was 9.9 µM; in [3] it was 25.6 µM; in test [4], 17.1 µM; in [5], 25.4 µM; in test [6] it was 10.1 µM. The values for the TGI in [7], in [9] and in test [10] were 5.75 µM, 39.4 µM and 7.38 µM, respectively.
For the molecule `CC(C)(C)OC(=O)CN1CCNCCN(CC(=O)OC(C)(C)C)CCNCC1`, the TGI in test [1], in test [2], in test [3], in test [4], in [5] and in test [6] was greater than 100 µM each time. The TGI in [7], in [8] and in test [10] was greater than 100 µM each time.
As for `Cc1nc(C)c(N2CCNCC2)c(=O)[nH]1`, the TGI in [1], in [2], in test [4], in [6], in test [7] and in test [8] was greater than 100 µM in each case. The TGI in test [9] and in [10] was greater than 100 µM in each case.
Regarding `Cc1ccc(C2=C(C#N)C(N)OC3=C2COc2ccccc23)cc1` (centres undefined), the TGI in test [1] is greater than 100 µM; in test [2], 74.4 µM; in test [3], greater than 100 µM; in [4] it was 69.1 µM; in [6] it was greater than 100 µM; in test [7], greater than 100 µM. Also, the TGI is 40.7 µM in [8] and greater than 100 µM in [9].
For `Cc1n[nH]c(=O)n1/N=C\c1ccccc1`, the TGI in test [1], in test [2], in [3], in [4], in test [5] and in test [6] was greater than 100 µM each time. The TGI in [7], in test [8] and in test [10] was greater than 100 µM in each case.
In the case of `Clc1ccc(-c2cn3c(nc4ccccc43)c(/C=C/c3ccco3)n2)cc1`, the TGI in test [1] is greater than 100 µM; in test [2], greater than 100 µM; in test [3], 41.6 µM; in [4], greater than 100 µM; in test [5], greater than 100 µM; in test [6] it was greater than 100 µM. Besides, the TGI in test [7], in test [8] and in test [9] was greater than 100 µM in each case.
For `COc1cc2c(c(O)c1OC)CC1CCC(=O)N1C2c1cccc2ccccc12` (centres undefined), the TGI in test [1] worked out at 31.7 µM; in test [2], 34.2 µM; in test [3] it was 34.9 µM; in test [4], 37.3 µM; in test [5], 38.2 µM; in [6], 41.6 µM. The TGI in test [7] worked out at 53.7 µM; in test [9] it was 33.8 µM; in test [10], 41.1 µM.
As to `CC(=O)NC(C)(C)C1CCC(C)=C(c2ccccc2)C1` (centres undefined), the TGI in test [1], in test [2], in test [4], in test [5], in [6] and in [8] was greater than 100 µM in each case. Moreover, the TGI in test [9] and in test [10] was greater than 100 µM throughout.
As for `CCOC(=O)c1nc2ccc(C(F)(F)F)cc2nc1Nc1ccc(Cl)c(Cl)c1`, the TGI in test [1], in [2], in test [4], in [5], in test [6] and in test [7] was greater than 100 µM each time. Moreover, the TGI in test [9] and in test [10] was greater than 100 µM each time.
Regarding `C=C1C(O)C[C@H](OC(C)=O)[C@]2(C)C1C(OC(C)=O)[C@]1(C(C)(C)O)CC(O)C(C)=C1[C@@H](OC(=O)c1ccccc1)C2OC(C)=O` (some centres undefined), the TGI in test [1], in [2], in test [3], in [4], in test [5] and in test [7] was greater than 10 µM throughout. The TGI in [8], in test [9] and in test [10] was greater than 10 µM throughout.
Consider `COc1ccc2c3c([nH]c2c1)CCN(CCCC(=O)c1ccc(F)cc1)C3`, for which the TGI is 35.1 µM in test [1]; 29.7 µM in test [2]; 32 µM in test [3]; 33.9 µM in [4]; 27.1 µM in [5]; 33.9 µM in test [7]. Also, the TGI was determined as 32.2 µM in test [8], 28.9 µM in [9] and 29.4 µM in [10].
